According to patent US11572590B2, “Methods for evaluating tumor cell spheroids using 3D microfluidic cell culture device” (Dana-Farber Cancer Institute, Inc., priority 2017, dated 2023):
Like-named read-outs stand apart in the source and are kept apart here.

Key:
Test in all cases: SelectScreen Kinase Profiling, single point inhibition and IC50 for off-target kinases
Format in all cases: biochemical
off-target kinases [1] = biological target: off-target kinases (Homo sapiens, UniProt P09619); settings: PDGFRB (PDGFR beta), ZLYTE, ATP Km app
off-target kinases [2] = biological target: T1, off-target kinases (Homo sapiens, UniProt O43781); settings: DYRK3, ZLYTE, ATP Km app
T1 sequence (O43781 1-588): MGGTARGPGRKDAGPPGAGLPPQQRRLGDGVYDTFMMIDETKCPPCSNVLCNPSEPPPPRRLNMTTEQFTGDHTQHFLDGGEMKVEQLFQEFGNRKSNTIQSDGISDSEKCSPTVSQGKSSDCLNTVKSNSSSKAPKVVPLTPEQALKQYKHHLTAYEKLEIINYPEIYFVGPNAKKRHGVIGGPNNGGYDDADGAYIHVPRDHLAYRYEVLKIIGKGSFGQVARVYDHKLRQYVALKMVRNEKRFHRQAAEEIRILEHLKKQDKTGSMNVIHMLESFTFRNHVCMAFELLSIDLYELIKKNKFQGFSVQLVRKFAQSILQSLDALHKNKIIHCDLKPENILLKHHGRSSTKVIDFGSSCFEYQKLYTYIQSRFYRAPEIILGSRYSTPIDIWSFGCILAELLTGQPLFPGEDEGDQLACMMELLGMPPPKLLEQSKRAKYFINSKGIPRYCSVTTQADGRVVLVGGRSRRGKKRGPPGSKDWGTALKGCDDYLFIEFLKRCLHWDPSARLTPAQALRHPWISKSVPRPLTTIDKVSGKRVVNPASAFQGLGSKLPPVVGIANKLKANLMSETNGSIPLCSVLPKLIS

off-target kinases [3] = biological target: off-target kinases (Homo sapiens, UniProt Q9UIK4); settings: DAPK2, LanthaScreen Binding
off-target kinases [4] = biological target: T2, off-target kinases (Homo sapiens, UniProt O14757); settings: CHEK1 (CHK1), ATP Km app, ZLYTE
T2 sequence (O14757 1-476): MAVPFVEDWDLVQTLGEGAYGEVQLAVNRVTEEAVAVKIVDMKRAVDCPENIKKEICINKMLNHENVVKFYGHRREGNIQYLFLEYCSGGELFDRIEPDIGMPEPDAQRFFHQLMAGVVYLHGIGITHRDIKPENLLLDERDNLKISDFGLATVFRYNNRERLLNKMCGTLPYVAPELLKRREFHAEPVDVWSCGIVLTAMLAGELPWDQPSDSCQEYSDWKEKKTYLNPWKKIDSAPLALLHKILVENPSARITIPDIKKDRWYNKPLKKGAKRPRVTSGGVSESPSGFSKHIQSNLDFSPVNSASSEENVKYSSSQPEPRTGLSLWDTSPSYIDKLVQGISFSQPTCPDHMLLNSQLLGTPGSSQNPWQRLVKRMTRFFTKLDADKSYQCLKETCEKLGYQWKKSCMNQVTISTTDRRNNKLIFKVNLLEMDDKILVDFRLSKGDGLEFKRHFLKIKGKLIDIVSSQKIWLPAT

off-target kinases [5] = biological target: off-target kinases (Homo sapiens, UniProt Q7KZI7); settings: MARK2, ATP Km app, ZLYTE
off-target kinases [6] = biological target: off-target kinases (Homo sapiens, UniProt P08581); settings: MET (cMet), ZLYTE, ATP Km app
off-target kinases [7] = biological target: off-target kinases (Homo sapiens, UniProt P16234, V561D); settings: PDGFRA V561D, ATP Km app, ZLYTE
Chain of off-target kinases (Homo sapiens, UniProt P16234, V561D) (P16234 24-1089 V561D): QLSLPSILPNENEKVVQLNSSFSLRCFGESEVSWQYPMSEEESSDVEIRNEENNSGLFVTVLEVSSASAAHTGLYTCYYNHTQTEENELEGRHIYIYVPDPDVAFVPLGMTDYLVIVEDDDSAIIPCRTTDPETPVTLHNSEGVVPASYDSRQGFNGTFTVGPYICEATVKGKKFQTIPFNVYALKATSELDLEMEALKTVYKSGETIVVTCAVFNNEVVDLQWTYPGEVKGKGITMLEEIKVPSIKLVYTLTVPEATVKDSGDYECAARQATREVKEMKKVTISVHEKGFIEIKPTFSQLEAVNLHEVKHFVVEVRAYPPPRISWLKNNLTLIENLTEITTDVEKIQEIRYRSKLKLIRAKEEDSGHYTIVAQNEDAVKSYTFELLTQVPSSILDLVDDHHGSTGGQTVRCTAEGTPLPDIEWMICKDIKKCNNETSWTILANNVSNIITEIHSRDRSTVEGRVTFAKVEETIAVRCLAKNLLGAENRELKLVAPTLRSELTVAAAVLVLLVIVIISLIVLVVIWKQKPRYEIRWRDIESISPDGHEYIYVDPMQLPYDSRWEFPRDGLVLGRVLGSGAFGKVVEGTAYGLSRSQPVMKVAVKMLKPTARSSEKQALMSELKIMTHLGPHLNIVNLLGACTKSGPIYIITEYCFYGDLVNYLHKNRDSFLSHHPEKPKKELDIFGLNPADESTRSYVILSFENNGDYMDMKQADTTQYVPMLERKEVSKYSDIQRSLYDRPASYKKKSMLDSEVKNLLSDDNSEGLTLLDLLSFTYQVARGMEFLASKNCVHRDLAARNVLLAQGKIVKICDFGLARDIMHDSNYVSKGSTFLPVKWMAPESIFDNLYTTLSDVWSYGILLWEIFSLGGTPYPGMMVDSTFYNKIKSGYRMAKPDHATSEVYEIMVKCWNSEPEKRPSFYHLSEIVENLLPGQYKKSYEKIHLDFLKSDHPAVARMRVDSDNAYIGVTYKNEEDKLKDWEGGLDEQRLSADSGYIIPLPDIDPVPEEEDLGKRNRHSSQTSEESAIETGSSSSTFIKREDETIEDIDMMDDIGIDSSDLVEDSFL

Chain of off-target kinases (Homo sapiens, UniProt P09619) (P09619 33-1106): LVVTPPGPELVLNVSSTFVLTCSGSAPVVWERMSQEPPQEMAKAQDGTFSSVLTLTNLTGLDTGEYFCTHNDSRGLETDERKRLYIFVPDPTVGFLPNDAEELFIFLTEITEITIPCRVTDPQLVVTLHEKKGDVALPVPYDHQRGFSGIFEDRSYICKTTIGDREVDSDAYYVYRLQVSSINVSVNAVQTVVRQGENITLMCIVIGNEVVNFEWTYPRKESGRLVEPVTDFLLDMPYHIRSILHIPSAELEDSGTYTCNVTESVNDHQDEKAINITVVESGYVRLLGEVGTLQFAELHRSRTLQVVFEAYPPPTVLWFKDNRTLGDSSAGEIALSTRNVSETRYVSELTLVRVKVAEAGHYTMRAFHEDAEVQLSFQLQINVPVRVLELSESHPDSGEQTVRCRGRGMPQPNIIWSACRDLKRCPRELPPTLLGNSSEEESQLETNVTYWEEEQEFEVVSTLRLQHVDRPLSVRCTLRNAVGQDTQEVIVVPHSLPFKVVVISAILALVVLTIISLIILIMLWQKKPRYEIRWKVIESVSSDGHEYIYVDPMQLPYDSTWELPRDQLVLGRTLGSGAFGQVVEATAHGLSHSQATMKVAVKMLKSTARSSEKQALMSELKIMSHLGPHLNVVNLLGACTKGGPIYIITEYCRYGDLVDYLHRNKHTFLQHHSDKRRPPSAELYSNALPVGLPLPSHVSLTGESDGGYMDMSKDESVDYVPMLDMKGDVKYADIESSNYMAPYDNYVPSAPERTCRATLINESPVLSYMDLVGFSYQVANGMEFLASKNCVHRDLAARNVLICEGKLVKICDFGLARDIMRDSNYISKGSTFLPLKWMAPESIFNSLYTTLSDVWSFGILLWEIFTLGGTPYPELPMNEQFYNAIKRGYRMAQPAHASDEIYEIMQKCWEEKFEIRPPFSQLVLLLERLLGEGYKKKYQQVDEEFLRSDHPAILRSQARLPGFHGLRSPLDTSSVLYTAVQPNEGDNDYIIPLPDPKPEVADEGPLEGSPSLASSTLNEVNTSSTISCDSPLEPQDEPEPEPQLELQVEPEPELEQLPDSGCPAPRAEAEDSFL
Chain of off-target kinases (Homo sapiens, UniProt Q7KZI7) (Q7KZI7 whole entry): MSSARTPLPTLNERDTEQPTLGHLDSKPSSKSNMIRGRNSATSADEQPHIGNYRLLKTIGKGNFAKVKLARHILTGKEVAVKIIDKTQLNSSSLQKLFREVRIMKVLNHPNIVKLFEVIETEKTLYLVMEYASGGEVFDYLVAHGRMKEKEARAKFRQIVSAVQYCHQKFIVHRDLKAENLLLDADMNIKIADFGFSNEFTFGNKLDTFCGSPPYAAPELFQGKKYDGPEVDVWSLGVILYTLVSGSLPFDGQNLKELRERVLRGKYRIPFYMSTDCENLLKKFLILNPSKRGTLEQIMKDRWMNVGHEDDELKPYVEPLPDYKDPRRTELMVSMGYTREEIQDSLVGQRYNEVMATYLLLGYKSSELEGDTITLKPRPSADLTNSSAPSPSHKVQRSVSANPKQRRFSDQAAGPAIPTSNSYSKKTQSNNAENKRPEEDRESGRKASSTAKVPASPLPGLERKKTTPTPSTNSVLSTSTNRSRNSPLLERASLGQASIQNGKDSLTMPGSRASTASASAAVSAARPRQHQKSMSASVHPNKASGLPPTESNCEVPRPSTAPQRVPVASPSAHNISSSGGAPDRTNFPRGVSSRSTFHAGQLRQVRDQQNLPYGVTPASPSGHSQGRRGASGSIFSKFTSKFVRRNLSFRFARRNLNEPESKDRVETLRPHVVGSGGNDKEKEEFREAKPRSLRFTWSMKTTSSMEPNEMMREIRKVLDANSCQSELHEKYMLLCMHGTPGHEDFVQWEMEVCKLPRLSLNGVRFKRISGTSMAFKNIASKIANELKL
Chain of off-target kinases (Homo sapiens, UniProt Q9UIK4) (Q9UIK4 whole entry): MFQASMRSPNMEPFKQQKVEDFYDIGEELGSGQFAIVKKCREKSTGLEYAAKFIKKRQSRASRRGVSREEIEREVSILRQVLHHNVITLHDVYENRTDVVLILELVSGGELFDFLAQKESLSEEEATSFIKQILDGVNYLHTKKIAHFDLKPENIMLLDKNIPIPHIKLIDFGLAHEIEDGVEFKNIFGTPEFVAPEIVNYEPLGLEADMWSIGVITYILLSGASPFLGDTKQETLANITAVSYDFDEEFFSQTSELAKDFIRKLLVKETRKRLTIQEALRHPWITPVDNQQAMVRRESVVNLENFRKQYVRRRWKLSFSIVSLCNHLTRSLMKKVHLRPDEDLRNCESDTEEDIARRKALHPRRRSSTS
Chain of off-target kinases (Homo sapiens, UniProt P08581) (P08581 25-1390): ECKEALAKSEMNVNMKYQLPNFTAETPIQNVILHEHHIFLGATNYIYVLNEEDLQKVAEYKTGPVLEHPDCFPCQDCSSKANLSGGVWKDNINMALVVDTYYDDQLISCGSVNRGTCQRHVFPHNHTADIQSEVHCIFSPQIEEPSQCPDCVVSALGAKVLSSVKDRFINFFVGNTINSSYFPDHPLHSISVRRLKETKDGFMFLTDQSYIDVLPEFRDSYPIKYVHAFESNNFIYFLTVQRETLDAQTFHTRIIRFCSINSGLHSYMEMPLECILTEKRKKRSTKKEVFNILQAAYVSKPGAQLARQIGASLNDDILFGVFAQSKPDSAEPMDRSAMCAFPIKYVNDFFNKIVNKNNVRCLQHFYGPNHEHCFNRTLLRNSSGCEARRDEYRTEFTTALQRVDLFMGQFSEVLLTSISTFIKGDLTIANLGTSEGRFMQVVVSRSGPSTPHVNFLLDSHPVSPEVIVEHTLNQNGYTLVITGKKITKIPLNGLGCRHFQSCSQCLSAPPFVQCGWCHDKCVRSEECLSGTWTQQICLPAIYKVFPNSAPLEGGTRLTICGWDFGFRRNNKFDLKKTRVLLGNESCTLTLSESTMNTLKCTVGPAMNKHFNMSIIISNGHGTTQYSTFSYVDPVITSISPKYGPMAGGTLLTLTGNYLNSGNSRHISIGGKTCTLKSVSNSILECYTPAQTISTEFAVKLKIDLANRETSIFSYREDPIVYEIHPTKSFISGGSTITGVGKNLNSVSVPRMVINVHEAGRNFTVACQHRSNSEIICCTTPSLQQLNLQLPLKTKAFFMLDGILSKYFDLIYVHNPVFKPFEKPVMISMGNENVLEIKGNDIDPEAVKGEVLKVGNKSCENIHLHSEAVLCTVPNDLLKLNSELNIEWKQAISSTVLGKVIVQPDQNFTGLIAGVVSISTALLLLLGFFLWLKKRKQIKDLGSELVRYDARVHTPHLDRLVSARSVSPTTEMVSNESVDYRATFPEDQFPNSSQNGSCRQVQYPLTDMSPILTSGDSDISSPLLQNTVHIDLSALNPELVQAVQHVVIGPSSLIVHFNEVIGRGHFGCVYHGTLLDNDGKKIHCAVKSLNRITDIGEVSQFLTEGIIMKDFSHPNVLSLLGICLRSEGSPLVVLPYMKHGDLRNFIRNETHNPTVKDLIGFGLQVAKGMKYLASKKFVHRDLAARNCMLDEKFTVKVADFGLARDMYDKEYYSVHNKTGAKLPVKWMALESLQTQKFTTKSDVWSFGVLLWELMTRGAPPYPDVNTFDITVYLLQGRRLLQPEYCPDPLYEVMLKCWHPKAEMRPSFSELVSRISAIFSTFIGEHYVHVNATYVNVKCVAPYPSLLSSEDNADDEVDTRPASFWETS

**Q.** How did the inhibition (off-target kinases [1]; read-out: % Inhibition 1) turn out when N#Cc1cc(-c2ncnc(Nc3ccc(N4CCN(C5COC5)CC4)cc3)n2)ccc1OC1CCOCC1 [Compound 1, 5-(4-((4-(4-(oxetan-3-yl)piperazin-1-yl)phenyl)amino)-1,3,5-triazin-2-yl)-2-((tetrahydro-2H-pyran-4-yl)oxy)benzonitrile] was run?
**A.** 34%

**Q.** And the inhibition (off-target kinases [1]; read-out: % Inhibition 2)?
**A.** 30%

**Q.** What about the inhibition (off-target kinases [1]; read-out: % Inhibition Avg) of the same molecule?
**A.** 32%

**Q.** And the inhibition (off-target kinases [2]; read-out: % Inhibition 1)?
**A.** 26%

**Q.** And the inhibition (off-target kinases [2]; read-out: % Inhibition 2)?
**A.** 24%

**Q.** And the inhibition (off-target kinases [2]; read-out: % Inhibition Avg)?
**A.** 25%

**Q.** And the inhibition (off-target kinases [3]; read-out: % Inhibition 1)?
**A.** 60%

**Q.** And the inhibition (off-target kinases [3]; read-out: % Inhibition 2)?
**A.** 53%

**Q.** And the inhibition (off-target kinases [3]; read-out: % Inhibition Avg)?
**A.** 56%

**Q.** What about the inhibition (off-target kinases [4]; read-out: % Inhibition 1) of the same molecule?
**A.** 78%

**Q.** And the inhibition (off-target kinases [4]; read-out: % Inhibition 2)?
**A.** 78%

**Q.** And the inhibition (off-target kinases [4]; read-out: % Inhibition Avg)?
**A.** 78%

**Q.** What about the inhibition (off-target kinases [5]; read-out: % Inhibition 1) of the same molecule?
**A.** 86%

**Q.** What about the inhibition (off-target kinases [5]; read-out: % Inhibition 2) of the same molecule?
**A.** 82%

**Q.** And the inhibition (off-target kinases [5]; read-out: % Inhibition Avg)?
**A.** 84%

**Q.** And the inhibition (off-target kinases [6]; read-out: % Inhibition 1)?
**A.** 30%

**Q.** What about the inhibition (off-target kinases [6]; read-out: % Inhibition 2) of the same molecule?
**A.** 33%

**Q.** And the inhibition (off-target kinases [6]; read-out: % Inhibition Avg)?
**A.** 31%

**Q.** And the inhibition (off-target kinases [7]; read-out: % Inhibition 1)?
**A.** 85%

**Q.** And the inhibition (off-target kinases [7]; read-out: % Inhibition 2)?
**A.** 81%

**Q.** And the inhibition (off-target kinases [7]; read-out: % Inhibition Avg)?
**A.** 83%
